Measurements taken from the CheMixHub viscosity set.
Where “and” joins values, the source holds several entries; their conditions need not be identical. Equal values may be shown once. ± gives the uncertainty stated by the source.

Test: xn = mol fraction of the nth substance listed

Oc1ccc(Cl)cc1 + C[N+](C)(C)CCO.[Cl-]
Settings	viscosity
293.15 K, 101 kPa, x2 = 0.333	170.6 ± 4.5 mPa·s
298.15 K, 101 kPa, x2 = 0.333	123.2 ± 3 mPa·s
298.15 K, 101.33 kPa, x1 = 0.7	180.2 ± 75 mPa·s
298.15 K, 101.33 kPa, x1 = 0.8	108.2 ± 36 mPa·s and 77.89 ± 22 mPa·s and 66.12 ± 17 mPa·s
298.15 K, 101.33 kPa, x1 = 0.9	61.06 ± 15 mPa·s
303.15 K, 101 kPa, x2 = 0.333	92.75 ± 2.1 mPa·s
308.15 K, 101 kPa, x2 = 0.333	71.68 ± 1.6 mPa·s
313.15 K, 101 kPa, x2 = 0.333	55.45 ± 1.2 mPa·s
318.15 K, 101 kPa, x2 = 0.333	43.94 ± 0.94 mPa·s
323.15 K, 101 kPa, x2 = 0.333	35.45 ± 0.76 mPa·s

CNC(C)=O + Cc1cc(C)cc(C)c1
308.15 K, 101.33 kPa
Settings	viscosity [mPa·s]
x1 = 0.0458	0.6101 ± 0.0081
x1 = 0.3137	1.08 ± 0.013
x1 = 0.4362	1.342 ± 0.015
x1 = 0.5467	1.621 ± 0.018
x1 = 0.646	1.898 ± 0.02
x1 = 0.7315	2.174 ± 0.023
x1 = 0.8095	2.455 ± 0.025
x1 = 0.8779	2.719 ± 0.028
x2 = 0.0126	3.191 ± 0.032

CCOCCO + Cc1ccc(C)cc1
viscosity [mPa·s], 101 kPa
Settings	298.15 K	308.15 K
x1 = 0.0551	0.632 ± 0.011	0.555 ± 0.01
x1 = 0.1489	0.672 ± 0.012	0.584 ± 0.011
x1 = 0.2499	0.725 ± 0.013	0.625 ± 0.011
x1 = 0.3507	0.792 ± 0.014	0.674 ± 0.012
x1 = 0.4514	0.875 ± 0.015	0.735 ± 0.013
x1 = 0.5001	0.922 ± 0.016	0.769 ± 0.013
x1 = 0.5497	0.975 ± 0.016	0.808 ± 0.014
x1 = 0.6526	1.106 ± 0.018	0.9 ± 0.015
x1 = 0.7513	1.262 ± 0.021	1.01 ± 0.017
x1 = 0.8499	1.456 ± 0.024	1.143 ± 0.019
x1 = 0.9549	1.717 ± 0.027	1.319 ± 0.022

CCOCCO + Cc1cccc(C)c1
viscosity [mPa·s], 101 kPa
Settings	298.15 K	308.15 K
x1 = 0.0531	0.608 ± 0.011	0.521 ± 0.01
x1 = 0.1513	0.663 ± 0.012	0.566 ± 0.01
x1 = 0.2482	0.727 ± 0.013	0.618 ± 0.011
x1 = 0.3528	0.809 ± 0.014	0.682 ± 0.012
x1 = 0.4512	0.9 ± 0.015	0.752 ± 0.013
x1 = 0.5053	0.957 ± 0.016	0.795 ± 0.014
x1 = 0.5473	1.006 ± 0.017	0.831 ± 0.014
x1 = 0.6494	1.14 ± 0.019	0.928 ± 0.016
x1 = 0.751	1.3 ± 0.021	1.04 ± 0.018
x1 = 0.8492	1.487 ± 0.024	1.168 ± 0.02
x1 = 0.9554	1.731 ± 0.028	1.33 ± 0.022

CC(CC(C)(C)C)CP(=O)(O)CC(C)CC(C)(C)C (stereo not drawn) + Cc1ccccc1
298.15 K, 101 kPa
Settings	viscosity [mPa·s]
x1 = 0.0069	0.589 ± 0.007
x1 = 0.0129	0.633 ± 0.008
x1 = 0.0143	0.65 ± 0.008
x2 = 0.1117	88.23 ± 1.3
x2 = 0.2037	66.68 ± 0.82
x2 = 0.3198	43.9 ± 0.52
x2 = 0.4972	20.43 ± 0.24
x2 = 0.6533	9.197 ± 0.11
x2 = 0.7579	4.844 ± 0.057
x2 = 0.7674	4.562 ± 0.054
x2 = 0.8571	2.218 ± 0.026
x2 = 0.8649	2.075 ± 0.024
x2 = 0.9241	1.252 ± 0.015
x2 = 0.9269	1.219 ± 0.014
x2 = 0.9692	0.778 ± 0.009

CCOCCO + Cc1ccccc1
viscosity [mPa·s], 101 kPa
Settings	298.15 K	308.15 K
x1 = 0.056	0.576 ± 0.011	0.517 ± 0.01
x1 = 0.1494	0.627 ± 0.011	0.554 ± 0.01
x1 = 0.2493	0.69 ± 0.012	0.601 ± 0.011
x1 = 0.3539	0.771 ± 0.013	0.66 ± 0.012
x1 = 0.449	0.859 ± 0.015	0.723 ± 0.013
x1 = 0.5019	0.915 ± 0.015	0.763 ± 0.013
x1 = 0.5488	0.969 ± 0.016	0.802 ± 0.014
x1 = 0.6514	1.107 ± 0.018	0.899 ± 0.015
x1 = 0.7465	1.261 ± 0.021	1.007 ± 0.017
x1 = 0.8514	1.468 ± 0.024	1.149 ± 0.019
x1 = 0.9527	1.716 ± 0.027	1.317 ± 0.022

CNC(C)=O + Cc1ccccc1
308.15 K, 101.33 kPa
Settings	viscosity [mPa·s]
x1 = 0.0366	0.4848 ± 0.0047
x1 = 0.1983	0.7283 ± 0.0067
x1 = 0.3436	1.012 ± 0.0092
x1 = 0.4518	1.26 ± 0.011
x1 = 0.5799	1.582 ± 0.015
x1 = 0.6965	1.936 ± 0.018
x1 = 0.7868	2.28 ± 0.022
x1 = 0.8882	2.718 ± 0.026
x2 = 0.0175	3.188 ± 0.032

CCOCCO + Cc1ccccc1C
viscosity [mPa·s], 101 kPa
Settings	298.15 K	308.15 K
x1 = 0.0533	0.777 ± 0.014	0.674 ± 0.012
x1 = 0.1508	0.817 ± 0.014	0.708 ± 0.013
x1 = 0.2502	0.867 ± 0.015	0.75 ± 0.013
x1 = 0.3516	0.931 ± 0.016	0.8 ± 0.014
x1 = 0.4528	1.009 ± 0.017	0.858 ± 0.015
x1 = 0.5042	1.056 ± 0.017	0.892 ± 0.015
x1 = 0.553	1.104 ± 0.018	0.926 ± 0.016
x1 = 0.6472	1.211 ± 0.02	1.001 ± 0.017
x1 = 0.7494	1.353 ± 0.022	1.096 ± 0.018
x1 = 0.8486	1.52 ± 0.024	1.204 ± 0.02
x1 = 0.954	1.739 ± 0.028	1.34 ± 0.022

CC(CC(C)(C)C)CP(=O)(O)CC(C)CC(C)(C)C (stereo not drawn) + ClC(Cl)(Cl)Cl
298.15 K, 101 kPa
Settings	viscosity [mPa·s]
x1 = 0.0063	0.961 ± 0.011
x1 = 0.0131	1.04 ± 0.012
x1 = 0.0159	1.076 ± 0.012
x2 = 0.1192	98.3 ± 1.5
x2 = 0.201	83.19 ± 1.1
x2 = 0.3155	66.36 ± 0.79
x2 = 0.5037	36.06 ± 0.41
x2 = 0.6763	19.27 ± 0.21
x2 = 0.7689	12.88 ± 0.14
x2 = 0.7808	11.73 ± 0.13
x2 = 0.8099	9.498 ± 0.11
x2 = 0.86	5.932 ± 0.067
x2 = 0.8741	4.951 ± 0.056
x2 = 0.9286	2.263 ± 0.026
x2 = 0.9325	2.124 ± 0.024
x2 = 0.9717	1.255 ± 0.014

CCCCCCCCBr + ClC(Cl)(Cl)Cl
101 kPa
Settings	viscosity [mPa·s]
293.15 K, x1 = 0.0483	0.9339 ± 0.038
293.15 K, x1 = 0.0969	0.9701 ± 0.04
293.15 K, x1 = 0.1945	1.037 ± 0.042
293.15 K, x1 = 0.3916	1.173 ± 0.048
293.15 K, x1 = 0.5916	1.295 ± 0.053
293.15 K, x1 = 0.7943	1.404 ± 0.057
303.55 K, x1 = 0.0608	0.87 ± 0.036
303.55 K, x1 = 0.0978	0.893 ± 0.036
303.55 K, x1 = 0.1964	0.955 ± 0.039
303.55 K, x1 = 0.3775	1.08 ± 0.044
303.55 K, x1 = 0.5801	1.18 ± 0.048
303.55 K, x1 = 0.8407	1.307 ± 0.053
313.65 K, x1 = 0.0482	0.7513 ± 0.031
313.65 K, x1 = 0.0973	0.7763 ± 0.032
313.65 K, x1 = 0.1952	0.8276 ± 0.034
313.65 K, x1 = 0.3945	0.9359 ± 0.038
313.65 K, x1 = 0.5771	1.022 ± 0.042
313.65 K, x1 = 0.7616	1.097 ± 0.045

CCOCCO + ClC(Cl)(Cl)Cl
viscosity [mPa·s], 100 kPa
Settings	x2 = 0.0977	x2 = 0.1959	x2 = 0.2946	x2 = 0.3938	x2 = 0.4935	x2 = 0.5937	x2 = 0.6945	x2 = 0.7958	x2 = 0.8976
298.15 K	1.784 ± 0.016	1.657 ± 0.015	1.539 ± 0.014	1.428 ± 0.013	1.325 ± 0.012	1.229 ± 0.011	1.14 ± 0.011	1.056 ± 0.0099	0.9785 ± 0.0092
303.15 K	1.572 ± 0.014	1.47 ± 0.013	1.373 ± 0.013	1.283 ± 0.012	1.197 ± 0.011	1.118 ± 0.01	1.043 ± 0.0098	0.9725 ± 0.0092	0.9067 ± 0.0086
308.15 K	1.391 ± 0.013	1.308 ± 0.012	1.23 ± 0.011	1.155 ± 0.011	1.085 ± 0.01	1.019 ± 0.0096	0.9566 ± 0.009	0.8976 ± 0.0085	0.8421 ± 0.0081
313.15 K	1.236 ± 0.011	1.168 ± 0.011	1.105 ± 0.01	1.044 ± 0.0098	0.9864 ± 0.0093	0.9318 ± 0.0088	0.8798 ± 0.0084	0.8306 ± 0.008	0.7838 ± 0.0076

CC(CC(C)(C)C)CP(=O)(O)CC(C)CC(C)(C)C (stereo not drawn) + ClC(Cl)Cl
298.15 K, 101 kPa
Settings	viscosity [mPa·s]
x1 = 0.0053	0.568 ± 0.007
x1 = 0.0095	0.615 ± 0.007
x1 = 0.011	0.638 ± 0.008
x2 = 0.1271	90.02 ± 1.3
x2 = 0.2117	75.09 ± 0.98
x2 = 0.3912	50.44 ± 0.56
x2 = 0.5499	30.02 ± 0.35
x2 = 0.7028	11.91 ± 0.14
x2 = 0.7739	6.921 ± 0.081
x2 = 0.8002	5.613 ± 0.066
x2 = 0.8091	5.202 ± 0.061
x2 = 0.8378	3.942 ± 0.046
x2 = 0.8852	2.458 ± 0.029
x2 = 0.8924	2.301 ± 0.027
x2 = 0.9394	1.35 ± 0.016
x2 = 0.9426	1.28 ± 0.015
x2 = 0.9762	0.818 ± 0.01
